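All cell lines were grown in 96-well plates and treated with compound for 48 hours. TGI marks complete inhibition of growth.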
Assays:
Assay in all cases: NCI anticancer screen, dose series, 48 h
[1] = tested on: SK-MEL-2 melanoma
[2] = tested on: SW-620 colon
[3] = tested on: HOP-92 NSCLC
[4] = tested on: M14 melanoma
[5] = tested on: MALME-3M melanoma
[6] = tested on: HCT-15 colon
[7] = tested on: M19-MEL melanoma
[8] = tested on: NCI-H522 lung
[9] = tested on: LOX IMVI melanoma
[10] = tested on: EKVX NSCLC
[11] = tested on: DMS 114 small cell lung
[12] = tested on: UACC-257 melanoma
[13] = tested on: OVCAR-5 ovarian
[14] = tested on: SK-OV-3 ovarian
[15] = tested on: KM20L2 colon
[16] = tested on: HOP-62 NSCLC
[17] = tested on: HOP-18 NSCLC
[18] = tested on: XF 498 CNS
[19] = tested on: A549 NSCLC
[20] = tested on: SK-MEL-5 melanoma
[21] = tested on: SF-539 CNS
[22] = tested on: UO-31 renal
[23] = tested on: NCI-H226 lung
[24] = tested on: ACHN renal
[25] = tested on: NCI-H23 lung
[26] = tested on: HCT-116 colon
[27] = tested on: SK-MEL-28 melanoma
[28] = tested on: 786-0 renal
[29] = tested on: COLO 205 colon
[30] = tested on: OVCAR-3 ovarian
[31] = tested on: DLD-1 colon
[32] = tested on: SF-295 CNS
[33] = tested on: SNB-78 CNS
[34] = tested on: OVCAR-4 ovarian
[35] = tested on: SNB-75 CNS
[36] = tested on: CAKI-1 renal
[37] = tested on: HT29 colon
[38] = tested on: RPMI-8226 leukemia
[39] = tested on: OVCAR-8 ovarian
[40] = tested on: SNB-19 CNS
[41] = tested on: LXFL 529 NSCLC
[42] = tested on: SN12C renal
[43] = tested on: MOLT-4 leukemia
[44] = tested on: SF-268 CNS
[45] = tested on: U251 CNS
[46] = tested on: UACC-62 melanoma
[47] = tested on: DMS 273 small cell lung
[48] = tested on: TK-10 renal
[49] = tested on: HCC-2998 colon
[50] = tested on: NCI-H460 lung
[51] = tested on: KM12 colon
[52] = tested on: RXF 393 renal
[53] = tested on: RXF-631 renal
[54] = tested on: A498 renal
[55] = tested on: K-562 leukemia
[56] = tested on: CCRF-CEM leukemia
[57] = tested on: IGROV1 ovarian

CCOP(=O)(OCC)/C(C#N)=C\c1ccsc1
TGI [1]: > 100 µM
TGI [2]: > 100 µM
TGI [3]: > 100 µM
TGI [4]: > 100 µM
TGI [5]: > 100 µM
TGI [6]: > 100 µM
TGI [7]: > 100 µM
TGI [8]: > 100 µM
TGI [9]: > 100 µM
TGI [10]: > 100 µM
TGI [11]: > 100 µM
TGI [12]: > 100 µM
TGI [13]: > 100 µM
TGI [14]: > 100 µM
TGI [15]: > 100 µM
TGI [16]: > 100 µM
TGI [17]: > 100 µM
TGI [18]: > 100 µM
TGI [19]: > 100 µM
TGI [20]: > 100 µM
TGI [21]: > 100 µM
TGI [22]: > 100 µM
TGI [23]: > 100 µM
TGI [24]: > 100 µM
TGI [25]: > 100 µM
TGI [26]: > 100 µM
TGI [27]: > 100 µM
TGI [28]: > 100 µM
TGI [29]: > 100 µM
TGI [30]: > 100 µM
TGI [31]: > 100 µM
TGI [32]: > 100 µM
TGI [33]: > 100 µM
TGI [34]: > 100 µM
TGI [35]: > 100 µM
TGI [36]: > 100 µM
TGI [37]: > 100 µM
TGI [38]: > 100 µM
TGI [39]: > 100 µM
TGI [40]: > 100 µM
TGI [41]: > 100 µM
TGI [42]: > 100 µM
TGI [43]: > 100 µM
TGI [44]: > 100 µM
TGI [45]: > 100 µM
TGI [46]: > 100 µM
TGI [47]: > 100 µM
TGI [48]: > 100 µM
TGI [49]: > 100 µM
TGI [50]: > 100 µM
TGI [51]: > 100 µM
TGI [52]: > 100 µM

Cc1ccc(NC(=O)C(=O)C(C(=O)c2ccc3ccccc3c2)C2OC(=O)c3ccccc32)c(C)c1 (stereo unspecified)
TGI [1]: 26.8 µM
TGI [2]: 21.6 µM
TGI [3]: 27.8 µM
TGI [4]: 36.9 µM
TGI [5]: 22.4 µM
TGI [6]: 40.2 µM
TGI [7]: 22.6 µM
TGI [8]: 31.3 µM
TGI [9]: 32.2 µM
TGI [10]: 52 µM
TGI [11]: 31.7 µM
TGI [12]: 41.4 µM
TGI [13]: 36.5 µM
TGI [14]: 60.4 µM
TGI [15]: 56 µM
TGI [16]: 22.4 µM
TGI [53]: 20.6 µM
TGI [54]: 20 µM
TGI [17]: 29.5 µM
TGI [18]: 10.7 µM
TGI [19]: 62.8 µM
TGI [20]: 24 µM
TGI [55]: > 100 µM
TGI [21]: 19.4 µM
TGI [22]: 36.7 µM
TGI [23]: 15.8 µM
TGI [24]: 60.4 µM
TGI [56]: 78.1 µM
TGI [25]: 37.2 µM
TGI [26]: 20.1 µM
TGI [27]: 31.2 µM
TGI [28]: 19.7 µM
TGI [29]: 25.2 µM
TGI [30]: 31.5 µM
TGI [31]: 26.5 µM
TGI [57]: 39.9 µM
TGI [33]: 72.6 µM
TGI [34]: 25.6 µM
TGI [35]: 47.3 µM
TGI [36]: 32 µM
TGI [37]: 57.6 µM
TGI [38]: 40.4 µM
TGI [39]: 36.8 µM
TGI [41]: 20.4 µM
TGI [42]: 53.4 µM
TGI [43]: 23.7 µM
TGI [44]: 35.7 µM
TGI [45]: 17.2 µM
TGI [46]: 17.3 µM
TGI [48]: 42.9 µM
TGI [49]: 21.1 µM
TGI [50]: 25.5 µM
TGI [51]: 45.5 µM
TGI [52]: 22.5 µM

From PubChem BioAssay (NCI)
